Source: PubChem BioAssay (NCI)
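These data come from cells grown in 96-well plates and exposed to compound for 48 hours at five concentrations. TGI marks complete inhibition of growth.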

How the values were obtained:
Experiment in all cases: growth of human tumour cells (NCI), 48 h
[1] = tested on: RXF-631 renal
[2] = tested on: HOP-18 NSCLC
[3] = tested on: M19-MEL melanoma
[4] = tested on: XF 498 CNS
[5] = tested on: SNB-78 CNS
[6] = tested on: LXFL 529 NSCLC

CCCCCCCCCCCCCCCCCCN(C)CC(COP(=O)([O-])OCC[N+](C)(C)C)OC (centres undefined)
TGI [1]: 43.7 µM | TGI [2]: 32.5 µM | TGI [3]: 13.1 µM | TGI [4]: 29.9 µM | TGI [5]: 21.3 µM | TGI [6]: 21.6 µM

CCN(CC)C(=O)C(C)n1cc(C)c(=O)[nH]c1=O (centres undefined)
TGI [3]: > 100 µM | TGI [4]: > 100 µM | TGI [5]: > 100 µM | TGI [6]: > 100 µM

O=C1c2ccc(O)c(O)c2C(=O)c2c(O)ccc(O)c21
TGI [3]: > 100 µM | TGI [5]: > 100 µM | TGI [6]: > 100 µM

CCN1CCC(O)(c2ccc(Cl)cc2)C(C(=O)c2ccc(Cl)cc2)C1 (centres undefined)
TGI [2]: 95.9 µM | TGI [3]: > 100 µM | TGI [4]: > 100 µM | TGI [5]: > 100 µM | TGI [6]: > 100 µM

COc1ccc(-c2cc3[nH]nc(N)c3c(=O)o2)cc1
TGI [2]: > 100 µM | TGI [4]: > 100 µM | TGI [5]: > 100 µM | TGI [6]: > 100 µM

Nc1nc2c3nc(Nc4ccccc4)sc3nc(=O)n2c2sc(Nc3ccccc3)nc12
TGI [2]: > 100 µM | TGI [3]: > 100 µM | TGI [4]: > 100 µM | TGI [5]: > 100 µM | TGI [6]: > 100 µM

COC(=O)c1c2cccccc-2c(Cc2c3cccccc-3c(C(=O)OC)c2O)c1O
TGI [2]: > 100 µM | TGI [3]: > 100 µM | TGI [4]: > 100 µM | TGI [5]: > 100 µM

CC(=O)O[C@H]1C(=O)[C@@]2(C)C(C(OC(=O)c3ccccc3)C3[C@@H](O)C(OC(=O)[C@@H](O)[C@H](NC(=O)c4ccccc4)c4ccc(C(F)(F)F)cc4)C(C)=C1C3(C)C)[C@]1(OC(C)=O)CO[C@@H]1C[C@@H]2O (some centres undefined)
TGI [3]: > 25 µM | TGI [5]: > 25 µM | TGI [6]: > 25 µM
